Experimental data as given in patent US8299040B2, “Methods for treating cancer targeting transglutaminase” (Board of Regents, The University of Texas System, priority 2006, dated 2012).

What was measured:
Type in all cases: cell-based, human
[1] = test system: MDA-Panc28, Capan-2, Bx-PC3, Panc1 and MIAPaCa cells; assay: LC3-II accumulation (autophagy) in pancreatic cancer cell lines, western blot; details: 4 μM for 48 h
Protocol: (§1) (A) A panel of pancreatic cancer cell lines including MDA-Panc28, Capan-2, Bx-PC3, Panc1 and MIAPaCa cells were treated with Rottlerin (4 μM) for 48 h for the detection of LC3-II and TG2 expression by western blot. (B) MCF-7 cell line was also tested for LC3-II and TG2 expression by western blot. (C) Expression of TG2 in MDA-Panc28 cells was determined upon exposure to different treatments (D) Detection of autophagolysosomes; MDA-Panc28 cells were treated with either control siRNA, Rottlerin or TG2 siRNA for 48 h. Photomicrographs show morphological changes of the cells by phase contrast microscopy (left panels); acridine orange staining of the acidic vesicular organelles by fluorescent microscopy (center panels) and the localization LC3-II at autophagosomes in cells after transfection with GFP-LC3 plasmid (right panels). […]
(§2) After treatment, the cells were collected and centrifuged, and whole-cell lysates were obtained using a lysis buffer. Total protein concentration was determined using a DC protein assay kit (Bio-Rad, Hercules, Calif., USA). […] Mouse anti-β-actin and donkey anti-mouse secondary antibody were purchased from Sigma Chemical (St. Louis, Mo., USA) so that β-actin expression could be monitored to ensure equal loading of proteins. […] The blots were visualized with a Fluor Chem 8900 imager and quantified by a densitometer using the Alpha Imager application program (Alpha Innotech). […]

MDA-Panc28 cells = assay: Acidic vesicular organelles / autophagy by acridine orange FACS; details: 48 h, flow cytometry; control cells 8%
Protocol: To detect and quantify acidic vesicular organelles, cells were stained with acridine orange as described previously. The number of acridine orange-positive cells was determined by fluorescence-activated cell sorting (FACS) analysis. Cell morphology was examined using phase-contrast and fluorescence microscopy (Nikon, Melville, N.Y., USA) with the cells remaining in their culture flasks.
Exponentially growing untreated MDA-Panc28 cells were plated 24 h before transfection. Plated cells were transfected with double-stranded siRNA targeting TG2 mRNA and control (non-silencing) siRNA (all from Qiagen, Venlo, Netherlands) and/or the green fluorescent protein (GFP) and microtubule-associated protein 1 light chain 3 (LC3) fusion vector (GFP-LC3) using the Qiagen transfection reagent according to the manufacturer's protocol. Two siRNA sequences targeting TG2 were designed using siRNA-designing software (Qiagen). PKCδ siRNA was obtained from Santa Cruz Biotechnology (Santa Cruz, Calif., USA). Untransfected cells and non-silencing control siRNA-transfected cells were used as negative controls. After treatment, the cells were harvested for western blot analysis or FACS analysis to determine whether autophagy had occurred.

MCF-7 cells = assay: LC3-II accumulation in TG2-negative MCF-7 cells; details: MCF-7 (TG2-negative), optimal conditions
Protocol: as §1, §2

[2] = test system: Bx-PC3, MIAPaCa, MDA-Panc28, Panc1 and Capan-2 cells; assay: Growth inhibition in pancreatic cancer cell lines
Protocol: (A) Different pancreatic cancer cell lines were treated with rottlerin (4 μM) for 48 h, and viable cells were detected by proliferation assay using Alamar Blue staining. Bars represent growth inhibition after normalizing untreated cells to 100%. (B) Growth of the indicated cell lines after treatment with rottlerin (4 μM) for 48 and 96 h.
Pancreatic cell lines MDA-Panc28, Capan-2, Bx-PC3, Panc1 and MIAPaCa were provided by Dr. Shrikant Reddy (M. D. Anderson Cancer Center). MDA-Panc28 and Bx-PC3 cell lines were maintained in RPMI-1640 medium supplemented with 10% fetal calf serum. Panc1 and MIAPaCa cell lines and Capan-2 cells were maintained in DMEM and McCoy's 5A, respectively. All media were supplemented with 10% fetal calf serum. For the cell proliferation experiments, cells were seeded at a density of 1-2×10^5 cells in T-25 tissue culture flasks. Twenty-four hours after the seeding, cells were treated with various concentrations of rottlerin for the indicated periods of time. Adherent cells were collected by trypsinization, and cell numbers were determined using a Neubauer cell counting chamber. All experiments were replicated at least two times.

mTOR = mTOR pathway phosphorylation in MDA-Panc28 cells (western blot)
Protocol: (A) Phosphorylated mTOR was detected after 48 h of treatment with various doses of rottlerin, cells were subjected to western blot analysis. Phosphorylation of mTOR was inhibited in a dose-dependent manner. (B) MDA-Panc28 cells were treated with a specific mTOR inhibitor, rapamycin (at either 20 nM or 100 nM), TG2 siRNA or left untreated.
as §2, with “USA). Rottlerin and mTOR inhibitor (rapamycin) were purchased from Calbiochem (La Jolla, Calif., USA). Aliquots containing 30 μg of total protein from each sample were subjected to sodium dodecyl sulfate-polyacrylamide gel electrophoresis (SDS-PAGE) with a 4-20% gradient and electrotransferred to nitrocellulose membranes.” for “USA).”

TG2 = TG2 protein expression in MDA-Panc28 cells (western blot); details: 48 h
Protocol: (A) Cells at 80% confluence were treated with 1 μM, 2 μM or 4 μM rottlerin. After 48 h of treatment, the cells were lysed and cell lysates were fractionated by sodium dodecyl sulfate polyacrylamide gel electrophoresis (SDS-PAGE) and transferred onto nitrocellulose membrane to determine PKCδ and TG2 protein expression by western blot analysis. The membrane was stripped and reprobed with an anti-β-actin antibody to confirm equal loading of protein in each lane. (B) Total RNA was extracted, and transcript levels of TG2 and β-actin were determined by RT-PCR analysis as described in Materials and Methods. Relative expression levels were determined by densitometry as compared with β-actin. Experiments were repeated at least three times.
as §2

Question: CC(=O)c1c(O)c(C)c(O)c(Cc2c(O)c3c(c(C(=O)/C=C/c4ccccc4)c2O)OC(C)(C)C=C3)c1O [rottlerin] was tested. Which “endogenous LC3-II accumulation” value [1] did it give?
Answer: Its value is “significant increase in endogenous LC3-II accumulation”.

Question: What about the “percentage of red fluorescein-positive cells (acidic vesicular organelles)” value (MDA-Panc28 cells) of the same molecule?
Answer: Its value is 64%.

Question: What about the LC3-II accumulation (MCF-7 cells) of the same molecule?
Answer: Its LC3-II accumulation is “failed to produce any increase in LC3-II accumulation”.

Question: And the growth inhibition ([2]; 4 μM for 48 h, five cell lines)?
Answer: The growth inhibition was “induced growth inhibition in all five cell lines tested”.

Question: What about the “time course of growth inhibition” value ([2]; 4 μM, 48 and 96 h, MDA-Panc28, Bx-PC3, MIAPaCa) of the same molecule?
Answer: Its value is “time-dependent inhibition in cell growth of all three”.

Question: And the “phosphorylated mTOR (p-mTOR)” value (mTOR; MDA-Panc28, 48 h)?
Answer: The value was “downregulated phosphorylated mTOR (p-mTOR)”.

Question: And the p-p70S6K (mTOR; MDA-Panc28, data not shown)?
Answer: Its p-p70S6K is “downregulated”.

Question: And the “inhibition of TG2 protein expression” value (TG2; 1 μM)?
Answer: The value was 44%.

Question: And the “inhibition of TG2 protein expression (maximum)” value (TG2; 4 μM)?
Answer: The value was 94%.
